Series [1] deals with larvae of the barnacle Balanus amphitrite. Description: Larval settlement bioassay (antifouling activity). The series is classed as in vivo. As to conditions: for EC50: Amphibalanus amphitrite, read-out: Balanus amphitrite Larvae EC50. The procedure:
(§1) All compounds were tested for their cytotoxicity against a panel of tumor cell lines including human ovarian carcinoma A2780, human lung adenocarcinoma A549, human gastric carcinoma BGC823, human hepatoma Bel7402, and human colonic carcinoma HCT-8. […] In order to detect whether these compounds play a role for ecological functions, the test for antifouling activity against the larvae of the barnacle Balanus amphitrite was performed. […] A primary discussion of structure-activity relationship implied that α,β-unsaturated 2,3-dimethyl-γ-lactone is a functional unit for anti-barnacle.
(§2) Adults of the barnacle Balanus amphitrite Darwin were exposed to air for more than 6 h, and then were placed in a container filled with fresh 0.22 µm filtered sea water (FSW) to release nauplii. The collected nauplii were reared to cyprid stage according to the method described by Thiyagarajan et al.. When kept at 26–28 °C and fed with Chaetoceros gracilis, larvae developed to cyprids within four days. Fresh cyprids were used in the tests.

Series [2] in a line: Toxicity against barnacle larvae (LC50). Particulars: Balanus amphitrite (barnacle), in vivo; concentration required to kill 50% of larvae of a tested population. As to the method: as §1, §2
Setting [3] is: concentration where 50% of larval population was inhibited to settle compared to control, cyprids.

Values after ≈ are worked out from the molar mass of the structure shown. Like-named read-outs stand apart in the source and are kept apart here.

On to `CCCCC[C@@]1(O)C(C)=C(C)C(=O)[C@H]1CC(=O)OCC` [Compound 2, Sinularone B], for which the concentration for a half-maximal effect (EC50) (as a rule, the concentration giving half of the maximal effect) in series [1] (setting [3]) amounted to 23.5 mg/L (≈ 83.2 µM). Moreover, the LC50 (usually the concentration that kills 50% of the test population) in series [2] is above 50 mg/L.

As for `CC(=O)CC/C=C(/C)C[C@@H]1CC(C)(C)CC1=O` [Compound 1, Sinularone A], the EC50 in series [1] (setting [3]) was 13.9 mg/L (≈ 58.6 µM). Besides, the LC50 in series [2] was above 50 mg/L.

With `CCO[C@@]1(CCC(=O)OC)OC(=O)C(C)=C1C` [Compound 8, Sinularone H], the EC50 in series [1] (setting [3]) was 21.4 mg/L (≈ 88.3 µM). In addition, the LC50 in series [2] is above 50 mg/L.

For `CCCCC[C@]1(O)OC(=O)C(C)=C1C` [Compound 10, (S)-4-hydroxy-2,3-dimethyl-4-pentyl-γ-lactone], the EC50 in series [1] is 3.84 mg/L (≈ 19.4 µM). Moreover, the “antifouling activity (in words)” value in series [1] (against the barnacle Balanus amphitrite) was “the most active”. Moreover, the LC50 in series [2] was above 50 mg/L.

`CCOC(=O)CC[C@]1(O)OC(=O)C(C)=C1C` [Compound 7, Sinularone G]: in series [1] (setting [3]), the EC50 was determined as 18.6 mg/L (≈ 81.7 µM). In addition, the LC50 in series [2] is above 50 mg/L.

With `CCOC(=O)CCCCCCCCCCCC[C@]1(O)OC(=O)C(C)=C1C` [Compound 9, Sinularone I], the EC50 in series [1] (setting [3]) was found to be 12.6 mg/L (≈ 34.1 µM). For the same molecule, in series [2], the 50% lethal concentration (LC50) was above 50 mg/L.

(Values after article PMC3397443, “Sinularones A–I, New Cyclopentenone and Butenolide Derivatives from a Marine Soft Coral Sinularia sp. and Their Antifouling Activity” (Marine Drugs, 2012).)
